In brackets after ≈: the same amount, converted by molar mass.
Legend:
[1] = tested on: Cryptococcus neoformans ATCC 90112; test: Anti-fungal broth microdilution (MIC), fungus H; type: cell-based; settings: yeast protocol, more than 80% inhibition, 48 h
Procedure: (§1) Anti-fungal activity of selected compounds of the invention was assessed by means of anti-fungal susceptibility tests as follows.
(§2) The antifungal activities of the compounds of the invention against different fungi were measured according to standard broth microdilution methods of the US National Committee for Clinical Laboratory standards (NCCLS) for yeasts (NCCLS document M27-A, 1997) and filamentous fungi (NCCLS document M38-A, 2002).
(§3) Stock solutions of compounds of the invention were freshly prepared on the days of experiments equal to 1.28 mg/10 ml media. Serial dilutions were performed to achieve the following testing concentrations: 64 μg/ml, 32 μg/ml, 16 μg/ml, 8 μg/ml, 4 μg/ml, 2 μg/ml, 1 μg/ml, 0.5 μg/ml, 0.25 μg/ml and 0.125 μg/ml.
(§4) An inoculum of 10^6 CFU/ml of the fungi strain was prepared in the appropriate medium and transferred to test tubes for incubation.
(§5) The method is used to determine the minimum inhibitory concentrations (MIC) of drugs on fungi strains. […] For the filamentous fungi protocol, MIC determination took place after 48 to 72 h of culture at 35° C. and was defined at that concentration which produced more than 50% visible growth inhibition.

[2] = tested on: Candida albicans ATCC 10231; test: Anti-fungal broth microdilution (MIC), fungus D; type: cell-based; settings: yeast protocol, more than 80% inhibition, 48 h
Procedure: as §1, §2, §3, §4, §5

[3] = tested on: Candida albicans ATCC 90028; test: Anti-fungal broth microdilution (MIC), fungus E; type: cell-based; settings: yeast protocol, more than 80% inhibition, 48 h
Procedure: as §1, §2, §3, §4, §5

[4] = tested on: Candida parapsilosis ATCC 22019; test: Anti-fungal broth microdilution (MIC), fungus G; type: cell-based; settings: yeast protocol, more than 80% inhibition, 48 h
Procedure: as §1, §2, §3, §4, §5

[5] = tested on: Aspergillus fumigatus 040-200167; test: Anti-fungal broth microdilution (MIC), fungus C; type: cell-based; settings: filamentous protocol, more than 50% growth inhibition, 48 to 72 h
Procedure: as §1, §2, §3, §4, §5

[6] = tested on: Aspergillus fumigatus ATCC 204305; test: Anti-fungal broth microdilution (MIC), fungus A; type: cell-based; settings: filamentous protocol, more than 50% growth inhibition, 48 to 72 h
Procedure: as §1, §2, §3, §4, §5

[7] = tested on: Cryptococcus gattii ATCC 32608; test: Anti-fungal broth microdilution (MIC), fungus J; type: cell-based; settings: yeast protocol, more than 80% inhibition, 48 h
Procedure: as §1, §2, §3, §4, §5

[8] = tested on: Aspergillus fumigatus 322-384; test: Anti-fungal broth microdilution (MIC), fungus B; type: cell-based; settings: filamentous protocol, more than 50% growth inhibition, 48 to 72 h
Procedure: as §1, §2, §3, §4, §5

[9] = tested on: Cryptococcus neoformans H99; test: Anti-fungal broth microdilution (MIC), fungus I; type: cell-based; settings: yeast protocol, more than 80% inhibition, 48 h
Procedure: as §1, §2, §3, §4, §5

Candida albicans TS3 = test: Anti-fungal broth microdilution (MIC), fungus F; type: cell-based; settings: yeast protocol, more than 80% inhibition, 48 h
Procedure: as §1, §2, §3, §4, §5

[10] = tested on: SKOV-3 (human ovary adenocarcinoma) cells; test: XTT cytotoxicity assay, SKOV-3 cells; type: cell-based; settings: Homo sapiens, SK-OV-3, second set of experiments, read-out: SKOV-3 % INH [100 μM]
Procedure: On the first day of the experiment cells were harvested from exponential phase cultures by trypsination, counted and plated into 96 well flat-bottom micro titer plates depending on the cell line as listed below: [table] After a 24 h recovery to allow the cells to resume exponential growth, the test compounds were diluted immediately prior to use and transferred in 25 μl volume to the wells. Following 2 days of continuous drug exposure 50 μl of freshly prepared XTT-PMS solution {2% 0.386 mg/ml PMS (N-Methyl Dibenzopyrazine Methylsulphate; Sigma, Cat. No. […] Serva, Cat. No. 38450) in RPMI 1640 medium without phenol red} was added to the wells. To measure the proportion of living cells, the cells were incubated for 3 h with XTT-PMS reagent at 37° C., 5% CO2, humidified atmosphere allowing to form the formazan salt. […] Inhibition curves were generated and IC50 values calculated by using GraphPad Prism.

[11] = tested on: Bacteroides fragilis DSM 2151 (ATCC 25285); test: Anti-bacterial bouillon microdilution assay (MIC), bacterium E; type: cell-based; settings: anaerob, 24 h
Procedure: (§6) Selected compounds of the invention were tested in a bouillon microdilution assay method according to the DIN 58940 (www.din.de) guidelines for determination of susceptibility of bacterial strains with regard to cell growth inhibition. The assay method quantifies bacterial cell growth which corresponds to the turbidity of the liquid culture medium by photometric measurement carried out at 595 nm.
(§7) The method of MIC determination was performed according to DIN 58940-5. The volumina were adapted according to the microdilution method as described in DIN 58940-7 guideline.
(§8) Dependent on water solubility, compounds of the invention were dissolved either in water or ethanol in a concentration of 10 mg/ml. Subsequently, the stock was further diluted in water to a concentration of 512 μg/ml. The following serial dilutions (factor 2) were performed in water resulting in the following […] testing concentrations: 256 μg/ml, 128 μg/ml, 64 μg/ml, 32 μg/ml, 16 μg/ml, 8 μg/ml, 4 μg/ml, 2 μg/ml, 1 μg/ml, 0.5 μg/ml, 0.25 μg/ml and 0.125 μg/ml. Diluted compounds of the invention were transferred in 100 μl volume to the microtiter plate wells.
(§9) Pre-cultures of bacteria were grown in appropriate liquid media (refer to ATCC webpage, www.atcc.org) and afterwards were inoculated in corresponding liquid medium. 100 μl of the inoculums [adjusted to an amount of app. 1×10^6 microorganisms per ml (range of 10^5-10^8 microorganisms per ml)] were added to each of the testing compound concentrations and cultivated under the appropriate conditions.
(§10) Before and after incubation, bacterial growth was determined by photometric analysis against a positive control containing growing bacteria without compound and a sterile/negative control containing only the medium.

[12] = tested on: PC3 (human prostate carcinoma) cells; test: XTT cytotoxicity assay, PC3 cells; type: cell-based; settings: Homo sapiens, PC-3; 31.6 μM, second set of experiments; read-out: PC3 % INH [31.6 μM]
Procedure: (§11) Cytotoxicity of selected compounds of the invention against different mammalian cell lines was assessed as follows.
(§12) Human tumor cell lines KB/HeLa (ATCC CCL17, human cervix carcinoma), PC3 (ATCC CRL1435, human prostate carcinoma) and RKOp21 (human colon adenocarcinoma; Schmidt et al., Oncogene 2000, 19: 2423-2429) cells were used in an automated XTT screening assay for the assessment of cytotoxicity.
(§13) The XTT assay quantifies cellular metabolic activity which correlates with cell viability and cell number. Test compounds (selected compounds of the invention and known substances as controls) are dissolved in culture medium at 600 μM and added to the tumor cells in 10 different concentrations in a semi-logarithmic fashion starting from 100 μM as highest concentration.
(§14) In a second set of experiments employing PC3, RKOp21 and SKOV-3 (ATCC HTB-77, human ovary adenocarcinoma) cells, test and reference compounds were dissolved in 70% Ethanol/30% H2O in a stock concentration of 10 mM and diluted in cell culture medium to yield either 31.6 μM (PC3 and RKOp21) or 100 μM (SKOV-3) final concentration.
(§15) 48 h later cellular metabolic activity of cells treated with test compounds is quantified by measurement of the absorbance at 490 nm (conversion of XTT dye) in comparison to untreated control cells (100% viability).
(§16) KB/HeLa and PC3 cells were cultivated in RPMI 1640 medium (Gibco, Cat. No. 42401-018) supplemented with 10% heat inactivated fetal calf serum (FCS, Biochrom AG, Cat. No. S0115), 2 mM L-glutamine (Gibco, Cat. No. 25030-24) and 2% Penicillin-Streptomycin (PenStrep, Gibco, Cat. No. 15140-122). RKOp21 cells were grown in DMEM+GlutaMAXTM-I medium (Gibco, Cat. No. 61965-026) supplemented with 10% heat inactivated fetal calf serum (FCS, Biochrom AG, Cat. No. S0115), 2 mM L-glutamine (Gibco, Cat. No. 25030-24), 2% Penicillin-Streptomycin (PenStrep, Gibco, Cat. No. 15140-122) and 1% 1M HEPES (Gibco, Cat. No. 15630-056). All cells were cultured at 37° C. in 5% CO2 humidified air.
(§17) On the first day of the experiment cells were harvested from exponential phase cultures by trypsination, counted and plated into 96 well flat-bottom micro titer plates depending on the cell line as listed below:
(§18) After a 24 h recovery to allow the cells to resume exponential growth, the test compounds were diluted immediately prior to use and transferred in 25 μl volume to the wells.
(§19) Following 2 days of continuous drug exposure 50 μl of freshly prepared XTT-PMS solution {2% 0.386 mg/ml PMS (N-Methyl Dibenzopyrazine Methylsulphate; Sigma, Cat. No. P9625) in PBS+98% 1 mg/ml XTT (Sodium 2,3-bis(2-methoxy-4-nitro-5-sulfophenyl)-5-[(phenylamino)carbonyl]-2H-Tetrazolium; Serva, Cat. No. 38450) in RPMI 1640 medium without phenol red} was added to the wells. To measure the proportion of living cells, the cells were incubated for 3 h with XTT-PMS reagent at 37° C., 5% CO2, humidified atmosphere allowing to form the formazan salt. The amount of soluble formazan salt produced by cellular reduction of XTT is quantified by measuring the absorbance at 490 nm using the Biomek® 2000 ELISA plate reader. %-inhibition (cytotoxicity) of each test compound was calculated in relation to untreated control cells. Inhibition curves were generated and IC50 values calculated by using GraphPad Prism.

[13] = tested on: PC3, RKOp21 and SKOV-3 cell lines; test: XTT cytotoxicity assay, mean over all three cell lines; type: cell-based, human; settings: mean value over all three cell lines
Procedure: Following 2 days of continuous drug exposure 50 μl of freshly prepared XTT-PMS solution {2% 0.386 mg/ml PMS (N-Methyl Dibenzopyrazine Methylsulphate; Sigma, Cat. No. […] Serva, Cat. No. 38450) in RPMI 1640 medium without phenol red} was added to the wells. To measure the proportion of living cells, the cells were incubated for 3 h with XTT-PMS reagent at 37° C., 5% CO2, humidified atmosphere allowing to form the formazan salt. […] Inhibition curves were generated and IC50 values calculated by using GraphPad Prism. In the following table 7 cytotoxicity results (% inhibition of cell growth) obtained in the second set of experiments for selected compounds of the invention are presented in comparison to examples of the prior art (perifosine, miltefosine). The results presented are individual values for the respective cell line as well as the mean value over all three cell lines tested.

[14] = tested on: RKOp21 (human colon adenocarcinoma) cells; test: XTT cytotoxicity assay, RKOp21 cells; type: cell-based; settings: Homo sapiens; 31.6 μM, second set of experiments; read-out: RKOp21 % INH [31.6 μM]
Procedure: as §11, §12, §13, §14, §15, §16, §17, §18, §19

[15] = tested on: Moraxella catarrhalis DMS 11994 (ATCC 43617); test: Anti-bacterial bouillon microdilution assay (MIC), bacterium D; type: cell-based; settings: ATCC43617, 24 h
Procedure: as §6, §7, §8, §9, §10

| Compound | MIC, fungus H [1] [µg/mL] | MIC, fungus D [2] [µg/mL] | MIC, fungus E [3] [µg/mL] | MIC, fungus G [4] [µg/mL] | MIC, fungus C [5] [µg/mL] | MIC, fungus A [6] [µg/mL] | MIC, fungus J [7] [µg/mL] | MIC, fungus B [8] [µg/mL] | MIC, fungus I [9] [µg/mL] | MIC, fungus F (Candida albicans TS3) [µg/mL] | inhibition at 100 µM [10] [%] | MIC [11] [µg/mL] | inhibition at 31.6 µM [12] [%] | Mean % INH [13] [%] | inhibition at 31.6 µM [14] [%] | other results |
| --- | --- | --- | --- | --- | --- | --- | --- | --- | --- | --- | --- | --- | --- | --- | --- | --- |
| CCCCCCCCCCCCCCCCCCOP(=O)([O-])OCC[As+](C)(C)C [Compound 22, Phosphoric acid octadecyl ester 2-(N,N,N-trimethyl-arsen)-ethyl ester] | 1.5 | 0.5 | 1 | 1 | 3 | 3 | 0.5 | 2 | 6.6 | 1 |  |  |  |  |  |  |
| CCCCCCCCCCCCCCCCOP(=O)([O-])OCC[N+]1(C)CCCC1 [Compound 90] |  |  |  |  |  |  |  |  |  |  | 54.6 | 128 (≈ 295 µM) | 55.5 | 54.0 | 51.9 |  |
| CCCCCCCCCCCCCCCCOP(=O)([O-])OCC[N+]1(C)C=CC(C(=O)OCC)CC1 (centres unmarked) [Compound 266] |  |  |  |  |  |  |  |  |  |  | 8.5 | 128 (≈ 247 µM) | 25.8 | 13.6 | 6.6 | MIC [15]: 8 µg/mL (≈ 15.5 µM) |
| CCCCCCCC/C=C\CCCCCCCCCCCCOP(=O)([O-])OCC[N+](C)(C)C [ErPC, (13Z)-docosenylphosphocholine, reference compound] | 4 (≈ 8.17 µM) | >64 | >64 | 64 (≈ 131 µM) | >64 | >64 | 1.5 (≈ 3.06 µM) | >64 | 3 (≈ 6.13 µM) | 64 (≈ 131 µM) |  |  |  |  |  |  |
| CCCCCCCCCCCCCCCCOCCCOP(=O)([O-])OCC[N+](C)(C)C [Compound 8, Phosphoric acid 3-hexadecyloxy-propyl ester 2-trimethyl-ammonium-ethyl ester] |  |  |  |  |  |  |  |  |  |  |  |  |  |  |  | MIC [1]: 2 µg/mL; MIC [2]: 0.75 µg/mL; MIC [3]: 0.75 µg/mL; MIC [4]: 0.75 µg/mL; MIC ([5]; Aspergillus fumigatus, 040200167): 2 µg/mL; MIC ([6]; Aspergillus fumigatus, ATCC204305): 2 µg/mL; MIC [7]: 0.75 µg/mL; MIC ([8]; Aspergillus fumigatus, 322384): 2 µg/mL; MIC [9]: 1.5 µg/mL; MIC (Candida albicans TS3): 1 µg/mL |
